Assay results reported in the supplement of paper PMC10307832.

Legend:
Test in all cases: relative viability (nuclei count vs DMSO), 5 days (fraction); higher = more cells survive
NCI-H2009 = system: NCI-H2009
Outline: (§1)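 Dosing by pin tool came one day after lung cancer cell lines were seeded in 1536-well plates, using either one drug or a fixed anchor-drug dose plus five library-drug doses (not always all listed) in √10 steps. After 5 days, nuclei were counted on 4× images. Relative viability is treated-well nuclei count divided by vehicle-well nuclei count, and values are medians of duplicate plates.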

NCI-H1651 = system: NCI-H1651
Outline: as §1

NCI-H647 = system: NCI-H647
Outline: as §1

PC-14 = system: PC-14
Outline: as §1

SK-MES-1 = system: SK-MES-1
Outline: as §1

LXF-289 = system: LXF-289
Outline: as §1

LK-2 = system: LK-2
Outline: as §1

NCI-H441 = system: NCI-H441
Outline: as §1

NCI-H2087 = system: NCI-H2087
Outline: as §1

CAL-12T = system: CAL-12T
Outline: as §1

NCI-H1755 = system: NCI-H1755
Outline: as §1

H3255 = system: H3255
Outline: as §1

NCI-H322M = system: NCI-H322M
Outline: as §1

NCI-H596 = system: NCI-H596
Outline: as §1

NCI-H2126 = system: NCI-H2126
Outline: as §1

EMC-BAC-2 = system: EMC-BAC-2
Outline: as §1

201T = system: 201T
Outline: as §1

NCI-H3122 = system: NCI-H3122
Outline: as §1

HOP-62 = system: HOP-62
Outline: as §1

ABC-1 = system: ABC-1
Outline: as §1

NCI-H1734 = system: NCI-H1734
Outline: as §1

## O=c1[nH]c2ccccc2n1C1CCN(CCCC(c2ccc(F)cc2)c2ccc(F)cc2)CC1 [Pimozide] + C[C@]1(O)C[C@@H](c2nc(-c3ccc4ccc(-c5ccccc5)nc4c3)c3c(N)nccn32)C1 [Linsitinib] (partner 1 µM)
NCI-H2009; first compound 0.08 µM
  relative viability: 1.19
NCI-H2009; first compound 0.253 µM
  relative viability: 1.21
NCI-H2009; first compound 0.8 µM
  relative viability: 1.2
NCI-H2009; first compound 2.53 µM
  relative viability: 1.2
NCI-H2009; first compound 8 µM
  relative viability: 1.01
NCI-H1651; first compound 0.08 µM
  relative viability: 0.897
NCI-H1651; first compound 0.253 µM
  relative viability: 1
NCI-H1651; first compound 0.8 µM
  relative viability: 0.922
NCI-H1651; first compound 2.53 µM
  relative viability: 0.97
NCI-H1651; first compound 8 µM
  relative viability: 0.951
NCI-H647; first compound 0.08 µM
  relative viability: 1.16
NCI-H647; first compound 0.253 µM
  relative viability: 1.06
NCI-H647; first compound 0.8 µM
  relative viability: 1.1
NCI-H647; first compound 2.53 µM
  relative viability: 1.17
NCI-H647; first compound 8 µM
  relative viability: 0.779
PC-14; first compound 0.253 µM
  relative viability: 0.94
PC-14; first compound 0.8 µM
  relative viability: 0.99
PC-14; first compound 2.53 µM
  relative viability: 0.938
PC-14; first compound 8 µM
  relative viability: 0.91
SK-MES-1; first compound 0.08 µM
  relative viability: 0.993
SK-MES-1; first compound 0.253 µM
  relative viability: 1.04
SK-MES-1; first compound 0.8 µM
  relative viability: 1.07
SK-MES-1; first compound 2.53 µM
  relative viability: 1.11
SK-MES-1; first compound 8 µM
  relative viability: 1.09
LXF-289; first compound 0.08 µM
  relative viability: 0.928
LXF-289; first compound 0.253 µM
  relative viability: 0.902
LXF-289; first compound 0.8 µM
  relative viability: 0.964
LXF-289; first compound 2.53 µM
  relative viability: 0.946
LXF-289; first compound 8 µM
  relative viability: 0.886
LK-2; first compound 0.08 µM
  relative viability: 0.52
LK-2; first compound 0.253 µM
  relative viability: 0.543
LK-2; first compound 0.8 µM
  relative viability: 0.493
LK-2; first compound 2.53 µM
  relative viability: 0.37
LK-2; first compound 8 µM
  relative viability: 0.371
NCI-H441; first compound 0.08 µM
  relative viability: 0.496
NCI-H441; first compound 0.253 µM
  relative viability: 0.53
NCI-H441; first compound 0.8 µM
  relative viability: 0.752
NCI-H441; first compound 2.53 µM
  relative viability: 0.483
NCI-H441; first compound 8 µM
  relative viability: 0.389
NCI-H2087; first compound 0.08 µM
  relative viability: 0.904
NCI-H2087; first compound 0.253 µM
  relative viability: 0.869
NCI-H2087; first compound 0.8 µM
  relative viability: 0.917
NCI-H2087; first compound 2.53 µM
  relative viability: 1.04
NCI-H2087; first compound 8 µM
  relative viability: 0.96
CAL-12T; first compound 0.08 µM
  relative viability: 0.745
CAL-12T; first compound 0.253 µM
  relative viability: 0.803
CAL-12T; first compound 0.8 µM
  relative viability: 0.936
CAL-12T; first compound 2.53 µM
  relative viability: 0.755
CAL-12T; first compound 8 µM
  relative viability: 0.788
NCI-H1755; first compound 0.08 µM
  relative viability: 0.94
NCI-H1755; first compound 0.253 µM
  relative viability: 1.02
NCI-H1755; first compound 0.8 µM
  relative viability: 0.97
NCI-H1755; first compound 2.53 µM
  relative viability: 0.939
NCI-H1755; first compound 8 µM
  relative viability: 0.845
H3255; first compound 0.253 µM
  relative viability: 0.905
H3255; first compound 0.8 µM
  relative viability: 0.96
H3255; first compound 2.53 µM
  relative viability: 0.959
H3255; first compound 8 µM
  relative viability: 0.903
NCI-H322M; first compound 0.253 µM
  relative viability: 0.875
NCI-H322M; first compound 0.8 µM
  relative viability: 0.79
NCI-H322M; first compound 2.53 µM
  relative viability: 0.834
NCI-H322M; first compound 8 µM
  relative viability: 0.971
NCI-H596; first compound 0.08 µM
  relative viability: 1.16
NCI-H596; first compound 0.253 µM
  relative viability: 1.12
NCI-H596; first compound 0.8 µM
  relative viability: 1.04
NCI-H596; first compound 2.53 µM
  relative viability: 0.895
NCI-H596; first compound 8 µM
  relative viability: 0.998
NCI-H2126; first compound 0.08 µM
  relative viability: 0.747
NCI-H2126; first compound 0.253 µM
  relative viability: 0.662
NCI-H2126; first compound 0.8 µM
  relative viability: 0.713
NCI-H2126; first compound 2.53 µM
  relative viability: 0.74
NCI-H2126; first compound 8 µM
  relative viability: 0.774
EMC-BAC-2; first compound 0.08 µM
  relative viability: 0.768
EMC-BAC-2; first compound 0.253 µM
  relative viability: 0.787
EMC-BAC-2; first compound 0.8 µM
  relative viability: 0.828
EMC-BAC-2; first compound 2.53 µM
  relative viability: 0.828
EMC-BAC-2; first compound 8 µM
  relative viability: 0.749
201T; first compound 0.08 µM
  relative viability: 1
201T; first compound 0.253 µM
  relative viability: 1.01
201T; first compound 0.8 µM
  relative viability: 1
201T; first compound 2.53 µM
  relative viability: 1.05
201T; first compound 8 µM
  relative viability: 0.884
NCI-H3122; first compound 0.08 µM
  relative viability: 1.01
NCI-H3122; first compound 0.253 µM
  relative viability: 1.06
NCI-H3122; first compound 0.8 µM
  relative viability: 1
NCI-H3122; first compound 2.53 µM
  relative viability: 1.05
NCI-H3122; first compound 8 µM
  relative viability: 1.06
HOP-62; first compound 0.08 µM
  relative viability: 0.847
HOP-62; first compound 0.253 µM
  relative viability: 0.839
HOP-62; first compound 2.53 µM
  relative viability: 1.04
HOP-62; first compound 8 µM
  relative viability: 0.754
ABC-1; first compound 0.08 µM
  relative viability: 0.825
ABC-1; first compound 0.253 µM
  relative viability: 0.747
ABC-1; first compound 0.8 µM
  relative viability: 0.788
ABC-1; first compound 2.53 µM
  relative viability: 0.629
ABC-1; first compound 8 µM
  relative viability: 0.491
NCI-H1734; first compound 0.08 µM
  relative viability: 0.88
NCI-H1734; first compound 0.253 µM
  relative viability: 0.829
NCI-H1734; first compound 0.8 µM
  relative viability: 0.878
NCI-H1734; first compound 2.53 µM
  relative viability: 0.944
NCI-H1734; first compound 8 µM
  relative viability: 0.972
